The values that follow come from patent publication US6441021B1, “Sulfonated amino acid derivatives and metalloproteinase inhibitors containing the same” (Shionogi & Co., Ltd., priority 1996, dated 2002).

Usually melting point stands for the temperature, or range, at which the solid turns liquid. The term IC50 denotes the concentration at which inhibition is half-maximal. Low readings indicate inhibition by little substance, high ones a need for much substance.

Series [1] has as its target T1, MMP-9 (92 kDa, gelatinase B; type IV collagenase) (Homo sapiens, UniProt P14780).
T1 construct: endogenous in cells; enzyme purified from the conditioned medium
As to the kind of experiment: Assay of type IV collagenase inhibitors: activated MMP-9 with type IV collagenase activity kit substrate, fluorescent intensity. It is filed as biochemical. On the procedure: (1) Isolation and Purification of MMP-9 (92 kDa, Gelatinase B)
Type IV collagenase (MMP-9) was purified according to the methods descrived in the following literature.
Subsequently, activated MMP-9 was obtained by treating the pro-MMP-9 with trypsin.
(2) Assay Methods of Type IV Collagenase Inhibitors
Collagenase assay was performed using the activated MMP-9 described above and the substrate supplied in the type IV collagenase activity kit (YAGAI, inc.), according to the manufacturer's protocol. The following 4 assays are performed per compound (inhibitor).
(A) substrate (type IV collagenase), enzyme (MMP-9), inhibitor
(B) substrate (type IV collagenase), inhibitor
(C) substrate (type IV collagenase), enzyme (MMP-9)
(D) substrate (type IV collagenase)
According to the manufacturer's protocol, fluorescent intensity was measured and percent inhibition was determined by the following equation.
Inhibition (%)={1−(A−B)/(C−D)}×100

The mark [2] stands for this setting: inhibition of type IV collagenase (MMP-9), concentration at which percent inhibition reaches 50%.
Where [3] appears, read: activated MMP-9, type IV collagenase activity kit substrate, fluorescent intensity, concentration at which percent inhibition reaches 50%.

Like-named read-outs stand apart in the source and are kept apart here.

T1 sequence (P14780 107-707 limits assumed): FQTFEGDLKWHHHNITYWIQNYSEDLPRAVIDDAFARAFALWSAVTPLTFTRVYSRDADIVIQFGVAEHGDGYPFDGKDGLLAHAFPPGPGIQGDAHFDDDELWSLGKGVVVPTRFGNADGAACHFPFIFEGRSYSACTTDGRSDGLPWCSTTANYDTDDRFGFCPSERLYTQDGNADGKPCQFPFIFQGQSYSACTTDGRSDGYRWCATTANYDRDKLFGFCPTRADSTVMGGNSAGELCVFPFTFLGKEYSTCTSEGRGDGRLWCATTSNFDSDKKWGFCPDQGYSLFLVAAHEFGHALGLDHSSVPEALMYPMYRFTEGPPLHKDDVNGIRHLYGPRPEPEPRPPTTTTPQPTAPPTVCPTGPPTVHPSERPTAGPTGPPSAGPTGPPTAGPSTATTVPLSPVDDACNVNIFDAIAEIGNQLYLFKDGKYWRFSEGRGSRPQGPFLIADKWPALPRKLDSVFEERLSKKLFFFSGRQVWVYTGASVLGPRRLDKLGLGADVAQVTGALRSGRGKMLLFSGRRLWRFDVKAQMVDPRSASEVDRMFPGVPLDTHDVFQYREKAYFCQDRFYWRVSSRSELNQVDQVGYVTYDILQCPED

On to `COc1ccc(C(=O)Nc2ccc(S(=O)(=O)N[C@H](Cc3c[nH]c4ccccc34)C(=O)O)cc2)cc1` (hydrate or solvate) [Example 178], for which the melting point lay in the range of 233 to 234 °C.

In turn, `O=C(Nc1ccc(S(=O)(=O)N[C@H](Cc2c[nH]c3ccccc23)C(=O)O)cc1)c1ccc([N+](=O)[O-])cc1` (hydrate or solvate) [Example 180] displayed a melting point of 211 to 213 °C.

For `CN(C)c1ccc(C(=O)Nc2ccc(S(=O)(=O)N[C@H](Cc3c[nH]c4ccccc34)C(=O)O)cc2)cc1` (hydrate or solvate) [Example 181], the melting point is 236 to 238 °C.

`Cc1ccc(C(=O)Nc2ccc(S(=O)(=O)N[C@H](Cc3c[nH]c4ccccc34)C(=O)O)cc2)cc1` (hydrate or solvate) [Example 182]: the melting point fell in the range of 240 to 244 °C.

In turn, `O=C(Nc1ccc(S(=O)(=O)N[C@H](Cc2c[nH]c3ccccc23)C(=O)O)cc1)c1ccc(Br)cc1` (hydrate or solvate) [Example 183] yielded a melting point of 215 to 218 °C.

With `CSc1ccc(C(=O)Nc2ccc(S(=O)(=O)N[C@H](Cc3c[nH]c4ccccc34)C(=O)O)cc2)cc1` (hydrate or solvate) [Example 184], the melting point lay within 244 to 249 °C.

`O=C(Nc1ccc(S(=O)(=O)N[C@H](Cc2c[nH]c3ccccc23)C(=O)O)cc1)c1ccc(F)cc1` (hydrate or solvate) [Example 185] came in with a melting point of 170 to 175 °C.

As to `CC(C)[C@@H](NS(=O)(=O)c1ccc(NC(=O)c2ccc(-c3ccccc3)cc2)cc1)C(=O)O` (hydrate or solvate) [Example 195], the melting point is 254 to 256 °C.

For `O=C(O)[C@@H](Cc1ccccc1)NS(=O)(=O)c1ccc(C#Cc2ccc(F)cc2)s1` [Example 1a-2-38], the IC50 in series [1] (setting [2]) amounted to 222 nM.

In turn, `Cc1ccc(-c2ccc(S(=O)(=O)N[C@H](Cc3c[nH]c4ccccc34)C(=O)O)s2)cc1` [Example 1a-3-3] came in with an IC50 in series [1] (setting [2]) of 10.8 nM.

In turn, `Cc1ccc(-c2ccc(S(=O)(=O)N[C@@H](C(=O)O)C(C)C)s2)cc1` [Example 1a-3-7] registered an IC50 in series [1] (setting [2]) of 230 nM.

In turn, `CC(C)[C@@H](NS(=O)(=O)c1ccc(-c2ccc(F)cc2)s1)C(=O)O` [Example 1a-3-8] displayed an IC50 in series [1] (setting [2]) of 1280 nM.

In series [1] (setting [2]), `CSc1ccc(-c2ccc(S(=O)(=O)N[C@@H](C(=O)O)C(C)C)s2)cc1` [Example 1a-3-9] displayed an IC50 of 14 nM.

Regarding `O=C(NO)[C@@H](Cc1ccccc1)NS(=O)(=O)c1ccc(-c2ccccc2)cc1` [Example 1b-1-1], the IC50 in series [1] (setting [3]) turned out to be 30 nM.

In turn, `O=C(NO)[C@@H](Cc1ccccc1)NS(=O)(=O)c1ccc(C(F)(F)F)cc1` [Example 1b-1-10] returned an IC50 in series [1] (setting [3]) of 2100 nM.

Compound `CN(C)c1cccc2c(S(=O)(=O)N[C@H](Cc3ccccc3)C(=O)NO)cccc12` [Example 1b-1-11] showed an IC50 in series [1] (setting [3]) of 1700 nM.

The compound `O=C(NO)[C@@H](Cc1ccccc1)NS(=O)(=O)c1ccc(O)cc1` [Example 1b-1-24] registered an IC50 in series [1] (setting [3]) of 200 nM.

`O=C(NO)[C@@H](Cc1ccccc1)NS(=O)(=O)c1ccc([N+](=O)[O-])cc1` [Example 1b-1-27] came in with a 50% inhibitory concentration (IC50) in series [1] (setting [3]) of 3000 nM.

In turn, `O=C(NO)[C@@H](Cc1c[nH]c2ccccc12)NS(=O)(=O)c1ccc(-c2ccccc2)cc1` [Example 1b-1-33] returned an IC50 in series [1] (setting [3]) of 5 nM.

Regarding `O=C(NO)[C@@H](Cc1ccccc1)NS(=O)(=O)c1ccc(Oc2ccccc2)cc1` [Example 1b-1-60], the IC50 in series [1] (setting [3]) amounted to 1.2 nM.

`O=C(NO)[C@H](Cc1c[nH]c2ccccc12)NS(=O)(=O)c1ccc(Oc2ccccc2)cc1` [Example 1b-1-62]: in series [1] (setting [3]), the IC50 was 3500 nM.

Regarding `CC(C)[C@@H](NS(=O)(=O)c1ccc(Oc2ccccc2)cc1)C(=O)NO` [Example 1b-1-63], in series [1] (setting [3]), the IC50 came out at 0.39 nM.

As for `O=C(NO)[C@@H](Cc1ccccc1)NS(=O)(=O)c1ccc(N=Nc2ccccc2)cc1` [Example 1b-1-85], the IC50 in series [1] (setting [2]) is 13 nM.

Consider `COc1ccc(C(=O)Nc2ccc(S(=O)(=O)N[C@H](Cc3c[nH]c4ccccc34)C(=O)O)cc2)cc1` [Example 178], for which half-maximal inhibition in series [1] (IC50) was put at 25.2 nM.

Regarding `O=C(Nc1ccc(S(=O)(=O)N[C@H](Cc2c[nH]c3ccccc23)C(=O)O)cc1)c1ccc([N+](=O)[O-])cc1` [Example 180], the IC50 in series [1] worked out at 45 nM.

Compound `CN(C)c1ccc(C(=O)Nc2ccc(S(=O)(=O)N[C@H](Cc3c[nH]c4ccccc34)C(=O)O)cc2)cc1` [Example 181] displayed an IC50 in series [1] of 53.9 nM.

As to `Cc1ccc(C(=O)Nc2ccc(S(=O)(=O)N[C@H](Cc3c[nH]c4ccccc34)C(=O)O)cc2)cc1` [Example 182], the half-maximal inhibitory concentration (IC50) in series [1] amounted to 5.9 nM.

The compound `O=C(Nc1ccc(S(=O)(=O)N[C@H](Cc2c[nH]c3ccccc23)C(=O)O)cc1)c1ccc(Br)cc1` [Example 183] returned an IC50 in series [1] (setting [2]) of 2.7 nM.

With `CSc1ccc(C(=O)Nc2ccc(S(=O)(=O)N[C@H](Cc3c[nH]c4ccccc34)C(=O)O)cc2)cc1` [Example 184], in series [1], the half-maximal inhibitory concentration (IC50) came out at 3.25 nM.

As for `O=C(Nc1ccc(S(=O)(=O)N[C@H](Cc2c[nH]c3ccccc23)C(=O)O)cc1)c1ccc(F)cc1` [Example 185], inhibition in series [1] was half-maximal at 42.2 nM (IC50).

`CC(C)[C@@H](NS(=O)(=O)c1ccc(NC(=O)c2ccc(-c3ccccc3)cc2)cc1)C(=O)O` [Example 195] yielded an IC50 in series [1] of 1100 nM.

In series [1], `Cc1ccc(C(=O)Nc2ccc(S(=O)(=O)N[C@@H](C(=O)O)C(C)C)cc2)cc1` [Example 196] yielded a half-inhibitory concentration (IC50) of 57.3 nM.

Compound `CC(C)[C@@H](NS(=O)(=O)c1ccc(NC(=O)c2ccccc2)cc1)C(=O)O` [Example 199] returned an IC50 in series [1] of 2060 nM.

The compound `COc1ccc(C(=O)Nc2ccc(S(=O)(=O)N[C@@H](C(=O)O)C(C)C)cc2)cc1` [Example 200] had a concentration for half-maximal inhibition (IC50) in series [1] of 173 nM.

For `CC(C)[C@@H](NS(=O)(=O)c1ccc(NC(=O)c2ccc([N+](=O)[O-])cc2)cc1)C(=O)O` [Example 201], inhibition in series [1] was half-maximal at 252 nM (IC50).

`COc1ccc(C(=O)Nc2ccc(S(=O)(=O)N[C@@H](C(=O)O)C(C)(C)C)cc2)cc1` [Example 203] had an IC50 in series [1] of 173 nM.

`O=C(Nc1ccc(S(=O)(=O)N[C@H](Cc2ccccc2)C(=O)O)cc1)c1ccncc1` [Example 205] returned an IC50 in series [1] (setting [2]) of 4440 nM.

On to `O=C(O)[C@@H](Cc1c[nH]c2ccccc12)NS(=O)(=O)c1ccc(-c2nnn(-c3ccccc3)n2)cc1` [Example 210], for which, in series [1], the IC50 is 24 nM.

Regarding `O=C(O)C(Cc1cccc2ccccc12)NS(=O)(=O)c1ccc(-c2nnn(-c3ccccc3)n2)cc1` (stereo not shown) [Example 218], in series [1], it took 744 nM to reach half-maximal inhibition (IC50).

As for `O=Cn1cc(C[C@@H](NS(=O)(=O)c2ccc(-c3nnn(-c4ccccc4)n3)cc2)C(=O)O)c2ccccc21` [Example 219], in series [1], the IC50 worked out at 574 nM.

In series [1], `CCC(C)[C@@H](NS(=O)(=O)c1ccc(-c2nnn(-c3ccc(OC)cc3)n2)cc1)C(=O)O` (stereo partly shown) [Example 222] came in with an IC50 of 78 nM.

For `CC(C)[C@@H](NS(=O)(=O)c1ccc(-c2nnn(-c3ccc(Br)cc3)n2)cc1)C(=O)O` [Example 225], the IC50 in series [1] turned out to be 12.2 nM.

As to `O=C(O)[C@@H](Cc1ccccc1)NS(=O)(=O)c1ccc(-c2nnn(-c3ccc(Br)cc3)n2)cc1` [Example 228], the IC50 in series [1] came out at 106 nM.

Regarding `O=C(O)[C@@H](Cc1ccccc1)NS(=O)(=O)c1ccc(-c2nnn(-c3ccc([N+](=O)[O-])cc3)n2)cc1` [Example 230], in series [1], the IC50 was 281 nM.

Take `O=C(O)[C@@H](Cc1ccccc1)NS(=O)(=O)c1ccc(-c2nnn(-c3ccc(F)cc3)n2)cc1` [Example 231]: the IC50 in series [1] turned out to be 197 nM.

Compound `O=C(O)[C@@H](Cc1ccccc1)NS(=O)(=O)c1ccc(-c2nnn(-c3ccc(Cl)cc3)n2)cc1` [Example 232] gave a half-inhibitory concentration (IC50) in series [1] of 144 nM.

`Cc1ccc(-n2nnc(-c3ccc(S(=O)(=O)N[C@H](Cc4ccccc4)C(=O)O)cc3)n2)cc1` [Example 233] yielded an IC50 in series [1] (setting [2]) of 86.4 nM.

In the case of `COc1ccc(-n2nnc(-c3ccc(S(=O)(=O)N[C@H](Cc4ccccc4)C(=O)O)cc3)n2)cc1` [Example 234], half-maximal inhibition in series [1] (IC50) was put at 153 nM.

For `N#Cc1ccc(-n2nnc(-c3ccc(S(=O)(=O)N[C@H](Cc4ccccc4)C(=O)O)cc3)n2)cc1` [Example 235], the IC50 in series [1] was 265 nM.

Compound `Cc1ccc(-n2nnc(-c3ccc(S(=O)(=O)N[C@H](Cc4c[nH]c5ccccc45)C(=O)O)cc3)n2)cc1` [Example 241] yielded an IC50 in series [1] of 13.1 nM.

With `Cc1ccc(-n2nnc(-c3ccc(S(=O)(=O)N[C@@H](C(=O)O)C(C)C)cc3)n2)cc1` [Example 242], in series [1], the IC50 was 23.9 nM.

Turning to `CC(C)[C@@H](NS(=O)(=O)c1ccc(-c2nnn(-c3ccc(F)cc3)n2)cc1)C(=O)O` [Example 243], half-maximal inhibition in series [1] (IC50) was put at 52.9 nM.

In series [1] (setting [2]), `CSc1ccc(-n2nnc(-c3ccc(S(=O)(=O)N[C@@H](C(=O)O)C(C)C)cc3)n2)cc1` [Example 245] gave an IC50 of 5.9 nM.

`CSc1ccc(-n2nnc(-c3ccc(S(=O)(=O)N[C@H](Cc4ccccc4)C(=O)O)cc3)n2)cc1` [Example 246] registered an IC50 in series [1] of 10.8 nM.

Compound `CSc1ccc(-n2nnc(-c3ccc(S(=O)(=O)N[C@H](Cc4c[nH]c5ccccc45)C(=O)O)cc3)n2)cc1` [Example 247] yielded an IC50 in series [1] of 3.5 nM.

In the case of `CC(C)[C@H](C(=O)O)N(C)S(=O)(=O)c1ccc(Oc2ccccc2)cc1` [Example 252], the IC50 in series [1] turned out to be 240 nM.

`CC(C)[C@H](C(=O)O)N(CCCCN)S(=O)(=O)c1ccc(Oc2ccccc2)cc1` [Example 255] registered an IC50 in series [1] of 529 nM.

Turning to `O=C(O)[C@@H](Cc1ccccc1)N(Cc1ccccc1)S(=O)(=O)c1ccc(-c2nnn(-c3ccccc3)n2)cc1` [Example 258], half-maximal inhibition in series [1] (IC50) required 908 nM.
